For experiment [1], the target named is T1, human bradykinin 1 receptor (B1R) (Homo sapiens, UniProt P46663).
T1 construct: expressed in transfected cells
T1 sequence (P46663 1-353): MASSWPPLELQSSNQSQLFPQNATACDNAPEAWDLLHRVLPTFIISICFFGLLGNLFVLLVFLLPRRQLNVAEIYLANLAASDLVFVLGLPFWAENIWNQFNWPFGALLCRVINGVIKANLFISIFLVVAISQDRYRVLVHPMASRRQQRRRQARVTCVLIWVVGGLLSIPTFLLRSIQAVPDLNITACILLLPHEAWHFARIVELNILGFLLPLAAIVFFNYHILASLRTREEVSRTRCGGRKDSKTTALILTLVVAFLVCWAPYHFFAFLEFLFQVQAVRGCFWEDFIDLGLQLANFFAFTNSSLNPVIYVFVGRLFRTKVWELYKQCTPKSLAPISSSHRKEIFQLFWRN
Briefly: FLIPR Ca2+ assay, B1R antagonism, human. The conditions noted are these: 10 μM test substance, CHO K1 cells with human B1R gene (hB1R cells), Lys-Des-Arg9-bradykinin at EC80, % inhibition compared with the maximum achievable inhibition; for inhibition at 10 µM: read-out: B1R antagonism, human [10 μM] % inhibition. Type of experiment: cell-based. The gist of the method:
(§1)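 Antagonism is given as % of maximum achievable suppression of agonist-evoked Ca2+ influx, measured by Fluo-4 peak fluorescence in FLIPR. Stable hB1R or rB1R CHO K1 lines received 10 μM compound for 10-20 min before EC80 Lys-Des-Arg9-bradykinin (human) or Des-Arg9-bradykinin (rat).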

Experiment [2] deals with T2, bradykinin 1 receptor (B1R) of the rat (Rattus norvegicus, UniProt P97583).
T2 construct: expressed in transfected cells
T2 sequence (P97583 1-337): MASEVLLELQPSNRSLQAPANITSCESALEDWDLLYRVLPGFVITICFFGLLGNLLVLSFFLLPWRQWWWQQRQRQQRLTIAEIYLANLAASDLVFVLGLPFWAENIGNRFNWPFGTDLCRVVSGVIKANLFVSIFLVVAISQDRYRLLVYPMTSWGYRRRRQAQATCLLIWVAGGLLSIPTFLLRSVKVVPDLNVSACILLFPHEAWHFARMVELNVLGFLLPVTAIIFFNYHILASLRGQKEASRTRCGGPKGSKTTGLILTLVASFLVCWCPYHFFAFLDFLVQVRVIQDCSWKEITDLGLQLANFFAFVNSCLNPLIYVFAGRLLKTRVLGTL
The experiment in a line: FLIPR Ca2+ assay, B1R antagonism, rat. The experiment is classed as cell-based. Particulars: CHO K1 cells with rat B1R gene (rB1R cells), Des-Arg9-bradykinin at EC80, % inhibition compared with the maximum achievable inhibition; for B1R antagonism, rat [10 μM] % inhibition: 10 μM test substance; for inhibition at 10 µM: CHO-K1, 10 μM test substance, read-out: B1R antagonism, rat [10 μM] % inhibition. Put shortly:
as §1

As for `COc1cc(C)c(S(=O)(=O)N2CCCCC2COCCC(=O)N2CCC(OCCN3CCCC3)(c3cccc(F)c3)CC2)c(C)c1` (stereo not drawn) [Example 122, 1-[4-(3-fluorophenyl)-4-(2-pyrrolidin-1-yl-ethoxy)-piperidin-1-yl]-3-[[1-[(4-methoxy-2,6-dimethyl-phenyl)sulfonyl]-piperidin-2-yl]-methoxy]-propan-1-one], the “B1R antagonism, human [10 μM] % inhibition” value in experiment [1] is given as 100%. Further, the “B1R antagonism, rat [10 μM] % inhibition” value in experiment [2] (10 µM) amounted to 100%.
Take `COc1cc(C)c(S(=O)(=O)N2CCCC[C@H]2COCC(=O)N2CCC(OCCn3cncn3)(c3cccnc3)CC2)c(C)c1` [Example 59, 2-[[(2S)-1-[(4-methoxy-2,6-dimethyl-phenyl)sulfonyl]-piperidin-2-yl]-methoxy]-1-[4-pyridin-3-yl-4-[2-(1H-[1,2,4]triazol-1-yl)-ethoxy]-piperidin-1-yl]-ethanone]: the inhibition at 10 µM was determined as 100% in experiment [1] and 102% in experiment [2].
As for `O=C(COCC1CCc2ccccc2N1S(=O)(=O)c1ccc(Cl)c(Cl)c1)N1CCC(OCCN2CCCC2)(c2cccnc2)CC1` (stereo not drawn) [Example 24, 2-((1-(3,4-dichlorophenylsulfonyl)-1,2,3,4-tetrahydroquinolin-2-yl)methoxy)-1-(4-(pyridin-3-yl)-4-(2-(pyrrolidin-1-yl)ethoxy)piperidin-1-yl)ethanone], the inhibition at 10 µM in experiment [1] turned out to be 69%; in experiment [2], 101%.
The like results for `COc1cc(C)c(S(=O)(=O)N(CCOCC(=O)N2CCC(OCC[N+]3(C)CCCC3)(c3cccnc3)CC2)C2CC2)c(C)c1` [Example 58, N-cyclopropyl-4-methoxy-2,6-dimethyl-N-[2-[2-[4-[2-(1-methyl-pyrrolidin-1-ium-1-yl)-ethoxy]-4-pyridin-3-yl-piperidin-1-yl]-2-oxo-ethoxy]-ethyl]-benzenesulfonic acid amide iodide] were, in that order, 100% and 104%.
The like results for `O=C(CCCC1CCCCN1S(=O)(=O)c1ccc2ccccc2c1)N1CCC(OCCN2CCCC2)(c2cccnc2)CC1` (stereo not drawn) [Example 95, 4-[1-(naphthalen-2-ylsulfonyl)-piperidin-2-yl]-1-[4-pyridin-3-yl-4-(2-pyrrolidin-1-yl-ethoxy)-piperidin-1-yl]-butan-1-one] were, in that order, 95% and 101%.
Consider “3-[[1-[(4-methoxy-2,6-dimethyl-phenyl)sulfonyl]-piperidin-2-yl]-methoxy]-1-[4-pyridin-3-yl-4-(2-pyrrolidin-1-yl-ethoxy)-piperidin-1-yl]-propan-1-one [Example 120]”, for which the “B1R antagonism, human [10 μM] % inhibition” value in experiment [1] is recorded as 100%. In addition, the “B1R antagonism, rat [10 μM] % inhibition” value in experiment [2] was determined as 103%.
For the molecule `Cc1cccc(Cl)c1S(=O)(=O)N1CCCC[C@H]1COCC(=O)N1CCC(OCCN2CCCC2)(c2cccnc2)CC1` [Example 48, (S)-2-((1-(2-chloro-6-methylphenylsulfonyl)piperidin-2-yl)methoxy)-1-(4-(pyridin-3-yl)-4-(2-(pyrrolidin-1-yl)ethoxy)piperidin-1-yl)ethanone], the inhibition at 10 µM in experiment [1] was found to be 99%; in experiment [2], 105%.
The like results for `COc1cc(C)c(S(=O)(=O)N(C)CCOCC(=O)N2CCC(OCCN3CCCC3)(c3ccncc3)CC2)c(C)c1C` [Example 115, 4-methoxy-N,2,3,6-tetramethyl-N-[2-[2-oxo-2-[4-pyridin-4-yl-4-(2-pyrrolidin-1-yl-ethoxy)-piperidin-1-yl]-ethoxy]-ethyl]-benzenesulfonic acid amide] were, in that order, 100% and 102%.
Take `O=C(CC(NS(=O)(=O)c1ccc2ccccc2c1)c1ccccc1)N1CCC(OCCCN2CCCCC2)(c2cccnc2)CC1` (stereo not drawn) [Example 27, N-(3-oxo-1-phenyl-3-(4-(3-(piperidin-1-yl)propoxy)-4-(pyridin-3-yl)piperidin-1-yl)propyl)naphthalene-2-sulfonamide]: the inhibition at 10 µM in experiment [1] came to 83%; in experiment [2], 101%.
On to `COc1cc(C)c(S(=O)(=O)N2CCCCC2COCC(=O)N2CCC(OCCN3CCCC3)(c3ccncc3)CC2)c(C)c1` (stereo not drawn) [Example 84, 2-[[1-[(4-methoxy-2,6-dimethyl-phenyl)sulfonyl]-piperidin-2-yl]-methoxy]-1-[4-pyridin-4-yl-4-(2-pyrrolidin-1-yl-ethoxy)-piperidin-1-yl]-ethanone], for which the inhibition at 10 µM is 100% in experiment [1] and 103% in experiment [2].
The like results for `COc1cc(C)c(S(=O)(=O)N(CCOCC(=O)N2CCC(OCCN3CCCC3)(c3cccnc3)CC2)c2ccccc2)c(C)c1` [Example 98, 4-methoxy-2,6-dimethyl-N-[2-[2-oxo-2-[4-pyridin-3-yl-4-(2-pyrrolidin-1-yl-ethoxy)-piperidin-1-yl]-ethoxy]-ethyl]-N-phenyl-benzenesulfonic acid amide] were, in that order, 100% and 103%.
On the same counts, the results for `Cc1cccc(Cl)c1S(=O)(=O)N1CCCCC1CCCC(=O)N1CCC(OCCN2CCCC2)(c2cccnc2)CC1` (stereo not drawn) [Example 9, 4-(1-(2-chloro-6-methylphenylsulfonyl)piperidin-2-yl)-1-(4-(pyridin-3-yl)-4-(2-(pyrrolidin-1-yl)ethoxy)piperidin-1-yl)butan-1-one] are 100% and 102%.
The like results for `COc1cc(C)c(S(=O)(=O)N(CCOCC(=O)N2CCC(OCCN3CCCC3)(c3ccncc3)CC2)c2ccccc2)c(C)c1` [Example 100, 4-methoxy-2,6-dimethyl-N-[2-[2-oxo-2-[4-pyridin-4-yl-4-(2-pyrrolidin-1-yl-ethoxy)-piperidin-1-yl]-ethoxy]-ethyl]-N-phenyl-benzenesulfonic acid amide] were, in that order, 100% and 102%.
For `COc1cc(C)c(S(=O)(=O)N2CCCCC2CCCC(=O)N2CCC(OCCN3CCCC3)(c3cccc(F)c3)CC2)c(C)c1` (stereo not drawn) [Example 89, 1-[4-(3-fluorophenyl)-4-(2-pyrrolidin-1-yl-ethoxy)-piperidin-1-yl]-4-[1-[(4-methoxy-2,6-dimethyl-phenyl)sulfonyl]-piperidin-2-yl]-butan-1-one], the inhibition at 10 µM in experiment [1] worked out at 100%; in experiment [2] it was 99%.
The like results for `O=C(CC1CCCCN1S(=O)(=O)c1cccc(C(F)(F)F)c1)N1CCC(OCCCN2CCCC2)(c2cccnc2)CC1` (stereo not drawn) [Example 42, 1-(4-(pyridin-3-yl)-4-(3-(pyrrolidin-1-yl)propoxy)piperidin-1-yl)-2-(1-(3-(trifluoromethyl)phenylsulfonyl)piperidin-2-yl)ethanone] were, in that order, 52% and 48%.
Take `Cc1cccc(Cl)c1S(=O)(=O)N(CCOCC(=O)N1CCC(OCC[N+]2([O-])CCCC2)(c2cccc(F)c2)CC1)C1CC1` [Example 53, 2-chloro-N-cyclopropyl-N-[2-[2-[4-(3-fluorophenyl)-4-[2-(1-oxido-pyrrolidin-1-ium-1-yl)-ethoxy]-piperidin-1-yl]-2-oxo-ethoxy]-ethyl]-6-methyl-benzenesulfonic acid amide]: the inhibition at 10 µM in experiment [1] amounted to 100%; in experiment [2], 102%.
As to `Cc1cc(S(=O)(=O)N2CCCCC2CCC(=O)N2CCC(OCCN3CCN(C)CC3)(c3cccnc3)CC2)c(C)cc1Cl` (stereo not drawn) [Example 31, 3-(1-(4-chloro-2,5-dimethylphenylsulfonyl)piperidin-2-yl)-1-(4-(2-(4-methylpiperazin-1-yl)ethoxy)-4-(pyridin-3-yl)piperidin-1-yl)propan-1-one], the inhibition at 10 µM in experiment [1] worked out at 85%; in experiment [2], 61%.
Regarding `COc1cc(C)c(S(=O)(=O)N2CCCCC2COCC(=O)N2CCC(OCCN3CCCC3)(c3cccnc3)CC2)c(C)c1` (stereo not drawn) [Example 82, 2-[[1-[(4-methoxy-2,6-dimethyl-phenyl)sulfonyl]-piperidin-2-yl]-methoxy]-1-[4-pyridin-3-yl-4-(2-pyrrolidin-1-yl-ethoxy)-piperidin-1-yl]-ethanone], the “B1R antagonism, human [10 μM] % inhibition” value in experiment [1] (10 µM) amounted to 100%. Also, in experiment [2], the “B1R antagonism, rat [10 μM] % inhibition” value is given as 102%.

For the origin of these results see patent publication US8318769B2, “Substituted sulfonamide compounds” (Gruenethal GmbH, priority 2008, dated 2012).
